Data on 20 compounds can be found in PubChem BioAssay (NCI).

Several values for one entry are separate records, joined by “and”; a condition that tells them apart may be missing. Equal entries are not always repeated.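 Tested at 5 concentrations; 48 h exposure; 96-well plates; endpoints linearly interpolated, else capped at highest concentration. Definition used: TGI = concentration required for complete inhibition of growth.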

Holding throughout (assay): DTP human tumour cell line panel, 48 h
Experiment [1] deals with U251 CNS.
Experiment [2] deals with OVCAR-8 ovarian.
Experiment [3] deals with SK-MEL-28 melanoma.
The test system of experiment [4] is IGROV1 ovarian.
Experiment [5] deals with SR leukemia.
Experiment [6] deals with HOP-62 NSCLC.
The test system of experiment [7] is A549 NSCLC.
Experiment [8] concerns RPMI-8226 leukemia.
Experiment [9] concerns M14 melanoma.
The test system of experiment [10] is SNB-75 CNS.
Experiment [11] deals with OVCAR-5 ovarian.
In experiment [12] the test system is SK-MEL-2 melanoma.
Experiment [13] relates to OVCAR-4 ovarian.
For experiment [14], the system named is MCF7 breast.
In experiment [15] the test system is MDA-MB-435.
Experiment [16] deals with HS 578T breast.
In experiment [17] the test system is NCI/ADR-RES ovarian.
Experiment [18] concerns DU-145 prostate.
Experiment [19] relates to PC-3 prostate.

In general, TGI refers to the concentration at which net growth stops. A lower TGI goes with more potent growth arrest. Regarding `O=C1NCCCC12CCCNC2=O`, the TGI in experiment [1], in experiment [2], in experiment [3], in experiment [4], in experiment [5] and in experiment [6] was > 100 µM throughout. In addition, the TGI in [7], in [8] and in experiment [9] was > 100 µM throughout.

On to `CN(C(=O)c1ccc(Cl)cc1)C(=S)N1CCN(c2ccccn2)CC1`, for which the TGI in experiment [1], in experiment [2], in experiment [3], in experiment [10], in [4] and in experiment [5] was > 100 µM throughout. Moreover, the total growth inhibition concentration (TGI) in experiment [11], in experiment [12], in [6], in [7], in experiment [8] and in [9] was > 100 µM throughout. For the same compound, the TGI in [13] is > 100 µM.

In the case of `COc1c(OC)c(N)c2cc(C)c(=O)c(C)cc2c1N`, the TGI in experiment [1] is > 100 µM; in [2], > 100 µM; in experiment [10], > 100 µM; in [4], > 100 µM; in experiment [5], 45.7 µM; in experiment [11], > 100 µM. Besides, the TGI in experiment [12], in [6], in experiment [7], in experiment [8], in experiment [9] and in experiment [13] was > 100 µM in each case.

`CSc1nc(-c2ccc(C)cc2)c(C#N)c(=O)[nH]1`: the TGI in [14], in experiment [15], in experiment [16], in experiment [1], in experiment [2] and in [3] was > 100 µM throughout. In addition, the total growth inhibition concentration (TGI) in [10], in [17], in [4], in experiment [11], in [12] and in experiment [6] was > 100 µM each time. Also, the concentration for total growth inhibition (TGI) in [7], in experiment [8], in experiment [18], in experiment [9], in experiment [19] and in experiment [13] was > 100 µM throughout.

Consider `C=CN1C(=O)OC[C@@H]1c1ccccc1`, for which the concentration for total growth inhibition (TGI) in experiment [1], in experiment [2], in [3], in experiment [10], in experiment [4] and in experiment [11] was > 100 µM throughout. For the same compound, the TGI in experiment [12], in experiment [6], in [7], in [8], in experiment [9] and in [13] was > 100 µM in each case.

In the case of `COP(=O)(OC)C(=NCc1ccccc1)NNc1ccc([N+](=O)[O-])cc1`, the TGI in experiment [1] is 66.9 µM; in experiment [2] it was > 100 µM; in experiment [3] it was > 100 µM; in [10] it was 37.6 µM; in experiment [4] it was > 100 µM; in experiment [5] it was 56.9 µM. For the same compound, the TGI in [11] was > 100 µM; in experiment [12], 52.9 µM; in experiment [6] it was 72.1 µM; in [7], > 100 µM; in [8] it was 57.1 µM; in experiment [9], 53.7 µM. In [13], this compound gave a TGI of 90.7 µM.

`Nc1ccc(C(=O)NN2C(=O)C(Cl)C2c2cc(Br)ccc2O)cc1` (stereo unspecified): the total growth inhibition concentration (TGI) in experiment [1] was 90.3 µM; in [2], > 100 µM; in experiment [3] it was > 100 µM; in experiment [10] it was > 100 µM; in experiment [4], 94.3 µM; in experiment [11] it was > 100 µM. The TGI in experiment [6], in experiment [7], in experiment [8], in experiment [9] and in experiment [13] was > 100 µM in each case.

On to `COc1cc(Cl)cc(N(O)C(C)=O)c1OCc1ccccc1`, for which the TGI was > 100 µM in experiment [1]; > 100 µM in [2]; > 100 µM in experiment [3]; 76.4 µM in experiment [10]; > 100 µM in experiment [4]; > 100 µM in experiment [5]. The concentration for total growth inhibition (TGI) in [11], in [6], in experiment [7], in experiment [8], in experiment [9] and in [13] was > 100 µM in each case.

`CCN(CC)c1ccc(C2SCC(=O)N2c2ccc(NC(=O)c3ccc(N4C(=O)CSC4c4ccc(N(CC)CC)cc4)cc3)cc2)cc1` (stereo unspecified): the concentration for total growth inhibition (TGI) in [14], in [15], in experiment [16], in experiment [1], in [2] and in [3] was > 100 µM each time. Further, the TGI in experiment [10], in [17], in [4], in experiment [11], in experiment [12] and in experiment [6] was > 100 µM in each case. Besides, the concentration for total growth inhibition (TGI) in experiment [7], in [18], in experiment [9], in [19] and in [13] was > 100 µM throughout.

Take `COc1cc(C2c3cc4c(cc3[C@@H](NCCN3CCCCC3)C3COC(=O)[C@H]23)OCO4)cc(OC)c1O` (stereo partly specified): the TGI in experiment [1] was 1.44 µM and 1.62 µM; in experiment [2] it was 2.45 µM and 3.41 µM; in experiment [3] it was 7.22 µM and 11.4 µM; in [10] it was 2.9 µM; in experiment [4] it was 4.56 µM and 7.55 µM; in experiment [11], 5.06 µM and 5.73 µM. Moreover, the concentration for total growth inhibition (TGI) in experiment [12] was 4.92 µM and 4.65 µM; in [6], 0.283 µM; in experiment [7], 1.3 µM; in experiment [8], 5.69 µM and 3.93 µM; in experiment [9], 1.44 µM and 2 µM; in experiment [13], > 100 µM.

`O=C(O)C12C3C4C1C1C2C3C1(Br)C41OCCO1` (stereo unspecified): the TGI in experiment [1], in experiment [2], in [3], in experiment [10], in experiment [4] and in [11] was > 100 µM each time. Also, the TGI in [12], in [6], in [7] and in experiment [8] was > 100 µM throughout.

Regarding `O/N=C/c1cc2c(cc1Br)OCO2`, the TGI in experiment [1], in [2], in experiment [10], in experiment [4], in experiment [5] and in experiment [11] was > 100 µM each time. Further, the total growth inhibition concentration (TGI) in experiment [12], in experiment [6], in [7], in experiment [8], in experiment [9] and in experiment [13] was > 100 µM in each case.

Take `COc1ccc(C(=O)c2sc(Nc3ccccc3)nc2N)cc1`: the TGI in experiment [14], in experiment [16], in experiment [1], in [2], in experiment [3] and in [17] was > 100 µM each time. Also, the TGI in experiment [4] is > 100 µM; in [5], > 100 µM; in [11], > 100 µM; in [12] it was > 100 µM; in experiment [6], > 80.2 µM; in [7], > 100 µM. Moreover, the TGI in [8], in experiment [18], in experiment [9], in [19] and in experiment [13] was > 100 µM throughout.

Take `COc1ccc(-c2cc(-c3ccc(Nc4ccnc5cc(Cl)ccc45)cc3)nc(N)c2C#N)cc1`: the TGI in experiment [14], in experiment [15], in experiment [1], in experiment [2], in experiment [3] and in [10] was > 100 µM in each case. The TGI in experiment [17], in [4], in experiment [5], in experiment [11], in experiment [12] and in experiment [6] was > 100 µM in each case. The TGI in [7], in experiment [8], in experiment [18], in experiment [9], in experiment [19] and in experiment [13] was > 100 µM throughout.

Regarding `O=C1C=CC(=O)c2c(NCC3CC3)ccc(NCC3CC3)c21`, the TGI in [14] was 48.6 µM; in [15] it was 44.8 µM; in experiment [16], > 100 µM; in experiment [1], > 100 µM; in experiment [2], > 100 µM; in experiment [3] it was 99.1 µM. Also, the TGI in experiment [17], in experiment [4], in [5], in experiment [11], in experiment [12] and in experiment [6] was > 100 µM in each case. For the same compound, the TGI in experiment [7] is > 100 µM; in experiment [8], 47.4 µM; in experiment [9] it was 56.8 µM; in experiment [19], > 100 µM.

For the compound `CCC(CC)n1cc(C(=O)NC(=O)NCCCCCOC(=O)CCCCCCCCCCC(=O)OCCCCCNC(=O)NC(=O)c2cn(C(CC)CC)c(=O)[nH]c2=O)c(=O)[nH]c1=O`, the TGI in experiment [1] was > 100 µM; in experiment [2], > 100 µM; in experiment [3], > 100 µM; in experiment [10] it was 53.5 µM; in [4], > 100 µM; in experiment [5] it was > 100 µM. Besides, the total growth inhibition concentration (TGI) in experiment [11], in experiment [6], in experiment [7], in experiment [8], in [9] and in experiment [13] was > 100 µM in each case.

`COc1ccc(N(C)Sc2ccccc2)cc1`: the TGI in [1], in [2], in [3], in [4], in experiment [5] and in experiment [11] was > 100 µM throughout. In addition, the concentration for total growth inhibition (TGI) in [12], in experiment [6], in experiment [7], in experiment [8] and in experiment [9] was > 100 µM in each case.

In the case of `O=C(Cc1ccccc1)NN1C(=O)C(Cl)C1c1ccc([N+](=O)[O-])cc1` (stereo unspecified), the TGI in experiment [1], in experiment [2], in experiment [3], in experiment [10], in experiment [4] and in experiment [5] was > 100 µM in each case. The TGI in experiment [11], in experiment [12], in [6], in experiment [7], in experiment [8] and in [9] was > 100 µM in each case. Further, the TGI in experiment [13] is > 100 µM.

`C=CCN(N=O)C(=O)N(CCCC(NC(C)=O)C(=O)NCc1ccccc1)Cc1ccccc1` (stereo unspecified): the total growth inhibition concentration (TGI) in experiment [1], in [2], in experiment [3], in experiment [10], in experiment [4] and in experiment [11] was > 100 µM throughout. Also, the total growth inhibition concentration (TGI) in experiment [12] is > 100 µM; in experiment [6] it was > 100 µM; in experiment [7], > 100 µM; in experiment [8] it was 59.4 µM; in experiment [9] it was > 100 µM; in [13], > 100 µM.

In the case of `CCn1c2ccccc2c2ccc3c(c21)C(=O)c1ccccc1C3=O`, the concentration for total growth inhibition (TGI) in experiment [1], in [2], in experiment [3], in [10], in [4] and in experiment [5] was > 100 µM throughout. Also, the TGI in experiment [6], in [7], in [8], in [9] and in [13] was > 100 µM in each case.
